Assay results: patent publication US6660755B2, “Substituted diaryl or diheteroaryl methans, ethers and amines having retinoid agonist, antagonist or inverse agonist type biological activity” (Allergan, Inc., priority 1997, dated 2003)

Experiments:
RARβ [1] = target: RARβ (Homo sapiens, UniProt P10826, E106G/G107S/G110V); assay: PGR assay (RAR-P-GR holoreceptor transactivation), RARβ; assay type: cell-based; settings: for EC50: PGR assay (transactivation), CV-1 cells, luciferase reporter; for Emax: 18 h
Description: (§1) A holoreceptor transactivation assay and a ligand binding assay which measure the antagonist/agonist like activity of the compounds of the invention, or their ability to bind to the several retinoid receptor subtypes, respectively, are described in published PCT Application No. WO WO93/11755 (particularly on pages 30-33 and 37-41) published on Jun. 24, 1993, the specification of which is also incorporated herein by reference. A detailed experimental procedure for holoreceptor transactivations has been described by Heyman et al. Cell 1992, 68, 397-406; Allegretto et al. J. Biol. Chem. 1993 268, 26625-26633, and Mangelsdorf et al. The Retinoids: Biology, Chemistry and Medicine, pp 319-349, Raven Press Ltd., New York, which are expressly incorporated herein by reference. The results obtained in this assay are expressed in EC50 numbers, as they are also in the chimeric receptor transactivation assay. The results of ligand binding assay are expressed in Kd numbers. (See Cheng et al. Biochemical Pharmacology 22, 3099-3108, expressly incorporated herein by reference.) Still another transactivation assay, the “PGR assay” is described in the publication Klein et al. J. Biol. Chem. 1996, 271, 22692-22696, which is expressly incorporated herein by reference, and a detailed description is also provided below. The results of the PGR assay are also expressed in EC50 numbers (nanomolar concentration).
(§2) RAR-P-GR holoreceptor Transactivation Assay
(§3) CV-1 cells (4×10^5 cells/well) were transiently transfected with the luciferase reporter plasmid MTV-4(R5G)-Luc (0.7 μg/well) containing four copies of the R5G retinoid DNA response element along with the RXRα expression plasmid pRS-hRXRa (0.1 μg/well) and one of the RAR-P-GR expression plasmids (0.05 μg/well) in 12 well plates via calcium phosphate precipitation Chen et al. Mol. Cell. Biol. 1987, 7, 2745-2752 as described by Klein et al. J. Biol. Chem. 1996, 271, 22692, referenced above. The three different RAR-P-GR expression plasmids, pRS-RARα-P-GR, pcDNA3-RARβ-P-GR and pcDNA3-RARγ-P-GR, express RARα, RARβ and RARγ receptors, respectively, which contain modified DNA binding domains such that their “P-boxes” have been altered to that of the glucocorticoid receptor. These RAR-P-GR receptors bind to DNA as heterodimeric complexes with RXR. Specifically, the RAR-P-GR receptors bind retinoic acid response elements designated R5G, comprised of two RAR half sites (nucleotide sequence 5′-GGTTCA-3′) separated by 5 base pairs in which the 3′-half site has been modified to that of a glucocorticoid receptor half site, 5′-AGAACA-3′. To allow for various in transfection efficiency a β-galactosidase expression plasmid (0.01 μg/well) was used as an internal control. Alternatively, the assay was performed in a 96-well microtiter plate format (5000 cells/well) in a manner which was identical to that described above except ⅕ of the amount of the DNA-calcium phosphate precipitant (20 μl instead of 100 Al) was applied to each well. Eighteen hours after introduction of the DNA precipitants, cells were rinsed with phosphate buffered saline (PBS) and fed with D-MEM (Gibco-BRL) containing 10% activated charcoal extracted fetal bovine serum (Gemini Bio-Products). After rinsing with PBS cells were lysed with luciferase activity was measured as previously described in de Wet Mol. Cell. Biol. 1987, 7, 725-737. Luciferase values represent the mean±SEM of triplicate determinations normalized to β-galactosidase activity. The results of the PGR assay are also expressed in EC50 numbers (nanomolar concentration).

RARγ = target: T1, RARγ (Homo sapiens, UniProt P13631, E108G/G109S/G112V); assay: PGR assay (RAR-P-GR holoreceptor transactivation), RARγ; assay type: cell-based; settings: for EC50: PGR assay (transactivation), CV-1 cells, luciferase reporter; for % Efficiency RARγ: efficiency relative to all-trans-retinoic acid, PGR assay
T1 construct: expressed in transfected cells; host or cells: CV-1 cells
T1 sequence (P13631 1-454 E108G/G109S/G112V): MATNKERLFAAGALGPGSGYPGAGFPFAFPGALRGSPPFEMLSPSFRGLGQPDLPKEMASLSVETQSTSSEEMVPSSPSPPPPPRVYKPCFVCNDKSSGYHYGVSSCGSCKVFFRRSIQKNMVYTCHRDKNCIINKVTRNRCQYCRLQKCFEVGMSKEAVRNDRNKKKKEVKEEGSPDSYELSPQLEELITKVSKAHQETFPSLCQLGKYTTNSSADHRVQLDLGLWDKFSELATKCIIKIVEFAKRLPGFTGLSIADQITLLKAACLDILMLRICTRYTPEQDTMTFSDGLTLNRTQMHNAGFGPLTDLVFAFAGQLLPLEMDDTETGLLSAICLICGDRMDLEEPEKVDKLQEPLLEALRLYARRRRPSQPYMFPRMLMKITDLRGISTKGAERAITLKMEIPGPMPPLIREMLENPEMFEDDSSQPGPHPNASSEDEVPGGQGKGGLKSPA
T1 sequence (P19793 1-462 partner): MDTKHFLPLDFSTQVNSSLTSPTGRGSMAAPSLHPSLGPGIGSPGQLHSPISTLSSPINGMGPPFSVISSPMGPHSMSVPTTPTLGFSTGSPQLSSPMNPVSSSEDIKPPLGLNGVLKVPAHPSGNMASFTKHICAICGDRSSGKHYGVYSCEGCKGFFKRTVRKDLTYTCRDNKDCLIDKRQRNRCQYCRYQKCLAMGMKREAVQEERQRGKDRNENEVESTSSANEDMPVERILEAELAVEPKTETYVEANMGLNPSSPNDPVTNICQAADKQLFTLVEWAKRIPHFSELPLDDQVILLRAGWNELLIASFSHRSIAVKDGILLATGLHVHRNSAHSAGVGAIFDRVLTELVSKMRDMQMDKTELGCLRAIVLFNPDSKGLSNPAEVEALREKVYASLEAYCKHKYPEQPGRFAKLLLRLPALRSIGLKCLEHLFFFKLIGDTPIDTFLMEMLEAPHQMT
Description: as §1, §2, §3

RARβ [2] = target: T2, RARβ (Homo sapiens, UniProt P10826); assay: Ligand binding assay, RARβ; settings: read-out: Kd RABβ
T2 sequence (P10826 1-455): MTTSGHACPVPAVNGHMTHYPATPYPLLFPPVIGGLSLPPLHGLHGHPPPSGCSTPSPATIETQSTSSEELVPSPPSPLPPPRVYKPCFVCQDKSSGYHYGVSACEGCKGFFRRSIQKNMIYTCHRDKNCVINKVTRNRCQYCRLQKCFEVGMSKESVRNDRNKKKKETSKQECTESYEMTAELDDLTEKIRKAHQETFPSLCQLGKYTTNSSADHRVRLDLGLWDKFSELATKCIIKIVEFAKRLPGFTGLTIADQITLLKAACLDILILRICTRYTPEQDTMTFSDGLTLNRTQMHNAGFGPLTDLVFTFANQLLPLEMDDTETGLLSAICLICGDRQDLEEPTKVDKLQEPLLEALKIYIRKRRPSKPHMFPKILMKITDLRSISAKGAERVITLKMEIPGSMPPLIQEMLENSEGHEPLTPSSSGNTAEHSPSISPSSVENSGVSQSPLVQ
Description: as §1

[3] = efficiency relative to all-trans-retinoic acid, PGR assay

Chain of RARβ (Homo sapiens, UniProt P10826, E106G/G107S/G110V) (P10826 whole entry E106G/G107S/G110V, one chain of several): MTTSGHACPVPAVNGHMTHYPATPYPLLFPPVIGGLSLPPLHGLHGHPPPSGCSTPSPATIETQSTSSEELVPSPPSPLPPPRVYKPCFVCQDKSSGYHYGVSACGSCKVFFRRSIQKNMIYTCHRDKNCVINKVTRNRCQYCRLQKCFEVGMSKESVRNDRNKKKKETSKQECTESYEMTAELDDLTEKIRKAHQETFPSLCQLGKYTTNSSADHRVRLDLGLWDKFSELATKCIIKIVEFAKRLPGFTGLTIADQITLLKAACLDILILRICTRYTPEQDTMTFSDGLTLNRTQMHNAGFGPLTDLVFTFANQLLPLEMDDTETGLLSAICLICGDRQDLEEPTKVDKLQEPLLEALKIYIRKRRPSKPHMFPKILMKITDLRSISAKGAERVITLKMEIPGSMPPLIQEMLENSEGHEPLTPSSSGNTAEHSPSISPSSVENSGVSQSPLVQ

Row | EC50 (RARβ [1]) [µM] | % Efficiency RARβ (RARβ [1]; [3]) [%] | EC50 (RARγ) [µM] | % Efficiency RARγ (RARγ) [%] | Kd (RARβ [2]) [µM] | Emax (RARβ [1]; [3]) [%] | SMILES
1 | > 10 | 0 | > 10 | 70 | 0.113 | – | CC(C)(C)c1ccc(C#Cc2ccc(C(=O)O)cn2)cc1Oc1ccc(C(F)(F)F)cc1 [Compound 6, 6-[[4′-tert-Butyl-3′-(4″-trifluomethyl)phenoxy]phenylethynyl]-3-nicotinic Acid]
2 | > 10 | – | > 10 | 0 | 0.014 | 0 | COC(=O)c1ccc(Oc2cc(C#Cc3ccc(C(=O)O)c(F)c3)ccc2C(C)(C)C)cc1 [Compound 10, 4-[[4′-tert-Butyl-3′-(4″-carbomethoxy)phenoxy]phenylethynyl]-2-fluorobenzoic Acid]
3 | > 10 | – | > 10 | 1 | 0.034 | 3 | CC(C)(C)c1ccc(C#Cc2ccc(C(=O)O)c(F)c2)cc1Oc1ccc([N+](=O)[O-])cc1 [Compound 11, 4-[[4′-tert-Butyl-3′-(4″-nitro)phenoxy]phenylethynyl]-2-fluoro-benzoic Acid]
4 | > 10 | – | > 10 | 4 | 4.57 | 5 | CC(C)(C)c1ccc(C(=O)Nc2ccc(C(=O)O)c(F)c2)cc1Oc1ccc(C(F)(F)F)cc1 [Compound 13, 4-[[4′-tert-Butyl-3′-(4″-trifluoromethyl)phenoxy]benzoylamino]-2-fluorobenzoic Acid]
